Measured values as given in patent US12606568B2, “SMARCA degraders and uses thereof” (Kymera Therapeutics, Inc., priority 2020, dated 2026).

Legend:
Format in all cases: cell-based
[1] = biological target: T1, SMARCA2 (Homo sapiens, UniProt P51531); assay: MSD SMARCA2 degradation in A549 cell line; set-up: endogenous in cells; details: for SMARCA2 MSD A549 degradation 24 h: Average Dmax % / DC50: A549 cells; for DC50 / Dmax: 24 h; for DC50: read-out: SMARCA2 MSD A549 degradation 24 h: Average external-Abs DC50; for Dmax: A549, A549 cells
Experimental: Example 53. MSD SMARCA2 Degradation in A549 Cell Line
Cells were seeded into 96-well plates (A549 cells: 2×10^4 cells/well/100 ul media) abd incubated overnight. The next day, 200 nl compound were added into the intermediate plate with Echo (Labcyte 550) from source plate containing a 3-fold serial dilution from top concentration of 1 mM. The culture medium was changed with 80 ul of fresh medium and 80 ul of 2× compound solution was added into the well to make a final concentration of 1000 nM, 333.3 nM, 111.1 nM, 37.04 nM, 12.35 nM, 4.115 nM, 1.372 nM, 0.457 nM, 0.152 nM and 0 nM (DMSO). The wells were mixed and then incubated for 24 hours. The media was aspirated from the cultures and 60 ul pre-chilled PIPA lysis buffer (Boston BioProducts BP-115D) with protease/phosphatase inhibitor (Roche 05892791001/Roche 04906837001) was added into the well to lyze the cells for 20 minutes at 4° C. The MSD plate (L15XA) was coated with 40 ul cell lysate and incubated at 4° C. overnight. The next day, the plate was washed three times with TBST (CST #9997S), 150 ul/well. The MSD plates was blocked with 150 ul blocking buffer per well and shaked for 1 hr at R^†, 600 rpm. The blocking buffer was 3% Blocker A (MSD, R93BA-4) in TBST. The MSD plate was washed three times with 150 ul/well of TBST and 25 ul/well of detection antibody (Rabbit anti-SMARCA2/BRM antibody, 100 μg/ml, ab223735) was added at final concentration of 1 ug/mi diluted in 1% o Blocking buffer and shaken for 1 hour at R^†, 600 rpm. The MSD plate was washed three times with 150 ul/well of TBST and 25 ul/well of SULFO-TAG anti-rabbit antibody (MSD, R32AB-1) was added at final concentration of 1 μg/ml diluted in […] Blocking buffer and shaken for 1 hour at R^†, 600 rpm. The MSD plate was washed three times with 150 ul/well of TBST and 150 ul/well of 2×MSD reading buffer diluted from 4× (MSD, R92TC-2) with water was added. Lastly, the MSD instrument was read.
(§1) The letter codes for SMARCA2 degradation potency (DC50) include: A (<100 nM), B (100-500 nM), C (501-1000 nM), and D (>1000 nM). The letter codes for the percentage of SMARCA2 degradation after 24 hours (Dmax % o) include: A (>90% o degradation), B (>70-90% o degradation), C (50-70% o degradation), and D (<50% degradation).

[2] = biological target: T1, SMARCA2; assay: SMARCA2 Western blot MV4-11 degradation; set-up: SMARCA2 and SMARCA4 protein degradation in MV4-11 cells; endogenous in cells; host or cells: MV4-11; details: for SMARCA2 MSD MV411 degradation 24 h: average Dmax % / DC50: MV4-11 cells; for DC50 / Dmax: 24 h; for DC50: read-out: SMARCA2 MSD MV411 degradation 24 h: Mean external-Abs DC50; for Dmax: MV4-11, MV4-11 cells, read-out: SMARCA2 MSD MV411 degradation 24 h: average Dmax %
Experimental: (§2) Example 54. SMARCA2 and SMARCA 4 Western Blot MV4-11 Degradation
(§3) Cells were seeded into 6-well plates (MV4-11: 4×10^6 cells/well/1 ml) and 1 ml of 2× compound solution was added into the well to make the final concentration and the plates were mixed well and incubated for 24 hours (No cytotoxicity was observed). The cell were collected with media and spun at 3000 rpm for 5 minutes. The supernatant was aspirated and the well and the cells were washed with cold PBS once and combined for centrifugation again; the supernatant aspirated again. 200 ul pre-chilled RIPA lysis buffer (Boston BioProducts BP-115D) with protease/phosphatase inhibitor (Roche 05892791001/Roche 04906837001) was directly added into the tube to lyze the cells for 20 minutes on ice. The cell lysate were collected into EP tubes and spun at 13000 rpm for 20 minutes and 72 ul supernatant was transferred to a fresh EP tube containing 18 ul of 5× loading buffer (Beyotime Bio P0015) to make the loading samples. The samples were heated to 100° C. for 10 minutes and cooled to RT and microcentrifuged. 20 ul of samples were loaded onto SDS-PAGE gel (Novex, WG1402BOX) and the gel was run at 80 V for 20 minutes and 120 V for 1.5 hours. The samples were electrotransfer to a NC membrane using wet-transfer method with 250 mA for 2.5 hours. The membrane was blocked with LICOR blocking buffer (LI-COR, 927-50000) for 1 hour. The membrane was washed three times with TBST (CST #9997S), 5 minutes each. Incubation was performed with primary antibody prepared in blocking buffer with 0.1% Tween-20 (Solarbio, P8220) at 4° C. overnight (Anti-SMARCA2/BRM antibody (ab15597) 1:500; Anti-BRG1 antibody [EPR3912] (ab108318) 1:1000; Rabbit anti-Baf180 antibody [EPR15860] (Abcam, ab196022) 1:1000; mouse anti-beta-Actin (8H10D10) (CST #3700) 1:10000). The membrane was washed three times with TBST, 5 minutes each. Incubation with secondary antibody was performed for 1 hour at RT (anti-rabbit IgG (Licor, 926-32211) 1:5000; anti-mouse IgG (LI-COR, 926-68070) 1:5000). The membrane was washed three times with TBST, 5 minutes each and lastly the LiCOR was read.
as §1, with “SMARCA” for “SMARCA2”, “%)” for “% o)”, “(>90%” for “(>90% o”, “(>70-90%” for “(>70-90% o”, “(50-70%” for “(50-70% o”

[3] = biological target: T2, SMARCA4 (Homo sapiens, UniProt P51532); assay: SMARCA4 Western blot MV4-11 degradation; details: for SMARCA4 MSD MV411 degradation 24 h: average Dmax % / DC50: MV4-11 cells; for DC50 / Dmax: 24 h; for DC50: read-out: SMARCA4 MSD MV411 degradation 24 h: Mean external-Abs DC50; for Dmax: MV4-11, MV4-11 cells, read-out: SMARCA4 MSD MV411 degradation 24 h: average Dmax %
T2 construct: SMARCA2 and SMARCA4 protein degradation in MV4-11 cells; endogenous in cells; host or cells: MV4-11
Experimental: as §2, §3
as §1, with “SMARCA” for “SMARCA2”, “%)” for “% o)”, “(>90%” for “(>90% o”, “(>70-90%” for “(>70-90% o”, “(50-70%” for “(50-70% o”

T2 sequence (P51532 whole entry): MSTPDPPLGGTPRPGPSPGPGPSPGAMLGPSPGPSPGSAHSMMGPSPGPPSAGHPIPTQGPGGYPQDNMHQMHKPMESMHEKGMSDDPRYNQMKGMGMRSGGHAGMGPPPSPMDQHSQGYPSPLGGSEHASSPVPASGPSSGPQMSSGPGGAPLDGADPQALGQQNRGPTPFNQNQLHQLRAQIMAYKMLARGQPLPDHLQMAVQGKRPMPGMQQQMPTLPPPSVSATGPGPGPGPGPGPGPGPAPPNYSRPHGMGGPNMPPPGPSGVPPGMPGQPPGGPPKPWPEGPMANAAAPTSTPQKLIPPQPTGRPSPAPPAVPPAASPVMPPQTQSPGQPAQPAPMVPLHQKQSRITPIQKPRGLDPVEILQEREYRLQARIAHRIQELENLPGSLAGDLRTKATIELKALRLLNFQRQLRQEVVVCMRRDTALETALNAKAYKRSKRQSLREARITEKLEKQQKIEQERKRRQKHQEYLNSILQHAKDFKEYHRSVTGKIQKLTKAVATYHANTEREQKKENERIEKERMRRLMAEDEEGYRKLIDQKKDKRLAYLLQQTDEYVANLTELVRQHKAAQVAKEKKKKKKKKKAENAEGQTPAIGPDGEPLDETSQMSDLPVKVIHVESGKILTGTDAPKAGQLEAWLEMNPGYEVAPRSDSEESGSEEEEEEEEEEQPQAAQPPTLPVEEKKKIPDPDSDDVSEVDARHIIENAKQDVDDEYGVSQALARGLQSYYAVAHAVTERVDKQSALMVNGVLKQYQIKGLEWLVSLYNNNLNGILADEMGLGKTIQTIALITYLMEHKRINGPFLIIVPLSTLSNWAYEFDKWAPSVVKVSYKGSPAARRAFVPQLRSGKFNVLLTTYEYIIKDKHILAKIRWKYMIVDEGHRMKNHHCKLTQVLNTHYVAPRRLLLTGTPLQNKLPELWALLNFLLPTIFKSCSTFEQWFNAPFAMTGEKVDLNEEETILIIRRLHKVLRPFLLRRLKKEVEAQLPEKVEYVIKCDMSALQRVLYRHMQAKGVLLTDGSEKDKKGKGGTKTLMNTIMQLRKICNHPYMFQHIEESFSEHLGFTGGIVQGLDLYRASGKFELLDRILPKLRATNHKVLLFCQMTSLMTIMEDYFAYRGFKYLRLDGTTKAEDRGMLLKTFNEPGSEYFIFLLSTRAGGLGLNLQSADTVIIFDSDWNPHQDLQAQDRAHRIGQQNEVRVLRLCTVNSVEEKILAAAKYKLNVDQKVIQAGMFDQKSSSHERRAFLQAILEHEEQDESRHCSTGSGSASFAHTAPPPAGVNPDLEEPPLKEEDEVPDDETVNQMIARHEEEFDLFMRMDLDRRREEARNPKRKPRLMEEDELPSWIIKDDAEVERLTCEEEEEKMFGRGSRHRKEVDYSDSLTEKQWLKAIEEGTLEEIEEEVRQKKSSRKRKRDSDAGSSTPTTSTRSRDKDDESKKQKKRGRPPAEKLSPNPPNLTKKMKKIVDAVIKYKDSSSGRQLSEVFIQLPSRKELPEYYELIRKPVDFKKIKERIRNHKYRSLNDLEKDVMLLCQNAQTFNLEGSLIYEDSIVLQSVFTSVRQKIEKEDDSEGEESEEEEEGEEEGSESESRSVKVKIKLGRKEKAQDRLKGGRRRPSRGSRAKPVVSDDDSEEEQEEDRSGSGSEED
T1 sequence (P51531 whole entry): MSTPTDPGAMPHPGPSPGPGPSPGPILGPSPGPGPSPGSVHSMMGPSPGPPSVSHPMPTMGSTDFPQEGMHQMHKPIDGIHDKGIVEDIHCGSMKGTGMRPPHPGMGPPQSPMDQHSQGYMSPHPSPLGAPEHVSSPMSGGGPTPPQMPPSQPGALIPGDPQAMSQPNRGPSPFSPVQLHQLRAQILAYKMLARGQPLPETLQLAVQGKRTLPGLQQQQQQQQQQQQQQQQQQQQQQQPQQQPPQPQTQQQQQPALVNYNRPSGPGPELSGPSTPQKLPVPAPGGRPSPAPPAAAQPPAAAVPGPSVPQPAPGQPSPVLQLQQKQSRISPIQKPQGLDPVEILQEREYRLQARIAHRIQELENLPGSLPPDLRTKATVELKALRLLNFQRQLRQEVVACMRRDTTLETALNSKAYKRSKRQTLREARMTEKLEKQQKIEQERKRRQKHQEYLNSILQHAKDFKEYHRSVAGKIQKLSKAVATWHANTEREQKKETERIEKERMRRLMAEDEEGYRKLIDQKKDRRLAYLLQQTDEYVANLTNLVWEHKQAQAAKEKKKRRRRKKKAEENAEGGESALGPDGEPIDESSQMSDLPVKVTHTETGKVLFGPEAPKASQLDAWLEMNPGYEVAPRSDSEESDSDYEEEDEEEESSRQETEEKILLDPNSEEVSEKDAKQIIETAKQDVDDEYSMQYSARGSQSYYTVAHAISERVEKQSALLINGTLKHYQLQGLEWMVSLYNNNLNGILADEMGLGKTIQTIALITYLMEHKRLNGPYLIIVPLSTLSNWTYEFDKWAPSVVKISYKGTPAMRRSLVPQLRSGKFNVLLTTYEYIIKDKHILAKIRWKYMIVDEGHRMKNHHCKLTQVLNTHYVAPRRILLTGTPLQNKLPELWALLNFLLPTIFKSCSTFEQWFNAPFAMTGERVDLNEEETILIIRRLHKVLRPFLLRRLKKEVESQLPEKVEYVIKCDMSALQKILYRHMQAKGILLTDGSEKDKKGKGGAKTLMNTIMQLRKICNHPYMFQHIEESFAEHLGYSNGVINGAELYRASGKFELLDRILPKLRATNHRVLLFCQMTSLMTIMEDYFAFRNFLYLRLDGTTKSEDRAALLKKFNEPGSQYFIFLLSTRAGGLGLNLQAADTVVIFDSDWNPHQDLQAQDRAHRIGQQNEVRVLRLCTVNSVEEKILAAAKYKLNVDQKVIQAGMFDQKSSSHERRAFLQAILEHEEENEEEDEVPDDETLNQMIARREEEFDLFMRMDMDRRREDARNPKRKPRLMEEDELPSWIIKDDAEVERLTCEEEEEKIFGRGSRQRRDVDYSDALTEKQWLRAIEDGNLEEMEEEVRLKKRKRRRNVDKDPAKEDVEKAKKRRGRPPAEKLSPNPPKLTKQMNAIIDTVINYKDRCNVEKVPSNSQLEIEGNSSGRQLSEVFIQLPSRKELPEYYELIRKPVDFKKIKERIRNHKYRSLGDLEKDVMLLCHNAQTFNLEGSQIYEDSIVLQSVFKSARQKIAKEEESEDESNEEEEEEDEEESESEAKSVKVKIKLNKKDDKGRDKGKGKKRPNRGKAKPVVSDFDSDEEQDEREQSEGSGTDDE

Structure (SMILES): Cn1nccc1-c1ccc(CNC(=O)[C@@H]2C[C@@H](O)CN2C(=O)[C@@H](NC(=O)[C@H]2CC3(C2)C[C@H](N2CCC(c4cnc(N5C6CCC5CN(c5cc(-c7ccccc7O)nnc5N)C6)nc4)CC2)C3)C(C)(C)C)cc1 (stereo partly drawn) [I-36, (2S,4R)-1-((2S)-2-(6-(4-(2-(3-(3-amino-6-(2-hydroxyphenyl)pyridazin-4-yl)-3,8-diazabicyclo[3.2.1]octan-8-yl)pyrimidin-5-yl)piperidin-1-yl)spiro[3.3]heptane-2-carboxamido)-3,3-dimethylbutanoyl)-4-hydroxy-N-(4-(1-methyl-1H-pyrazol-5-yl)benzyl)-pyrrolidine-2-carboxamide]
- SMARCA2 MSD A549 degradation 24 h: Average Dmax % [1]: B (B (>70-90% o degradation))
- DC50 [1]: 100 to 500 nM
- SMARCA2 MSD MV411 degradation 24 h: average Dmax % [2]: B (B (>70-90% degradation))
- DC50 [2]: < 100 nM
- SMARCA4 MSD MV411 degradation 24 h: average Dmax % [3]: D (D (<50% degradation))
- DC50 [3]: > 1000 nM

Structure (SMILES): Cc1ncsc1-c1ccc(CNC(=O)[C@@H]2C[C@@H](O)CN2C(=O)[C@@H](NC(=O)[C@H]2CC3(C2)C[C@H](N2CCC(Oc4ccc(N5C6CCC5CN(c5cc(-c7ccccc7O)nnc5N)C6)cn4)CC2)C3)C(C)(C)C)cc1 (stereo partly drawn) [I-39, (2S,4R)-1-((2S)-2-(6-(4-((5-(3-(3-amino-6-(2-hydroxyphenyl)pyridazin-4-yl)-3,8-diazabicyclo[3.2.1]octan-8-yl)pyridin-2-yl)oxy)piperidin-1-yl)spiro[3.3]heptane-2-carboxamido)-3,3-dimethylbutanoyl)-4-hydroxy-N-(4-(4-methylthiazol-5-yl)benzyl)pyrrolidine-2-carboxamide]
- Dmax [1]: 50 to 70%
- DC50 [1]: > 1000 nM
- Dmax [2]: 70 to 90%
- DC50 [2]: 100 to 500 nM
- Dmax [3]: > 90%
- DC50 [3]: > 1000 nM

Structure (SMILES): Cc1ncsc1-c1ccc(CNC(=O)[C@@H]2C[C@@H](O)CN2C(=O)C(c2cc(OCCN3CCC(O[C@H]4C[C@H](Oc5cc(N6C7CCC6CN(c6cc(-c8ccccc8O)nnc6N)C7)ccn5)C4)CC3)no2)C(C)C)cc1 (stereo partly drawn) [I-22, (2S,4R)-1-(2-(3-(2-(4-((1r,3r)-3-((4-(3-(3-amino-6-(2-hydroxyphenyl)pyridazin-4-yl)-3,8-diazabicyclo[3.2.1]octan-8-yl)pyridin-2-yl)oxy)cyclobutoxy)piperidin-1-yl)ethoxy)isoxazol-5-yl)-3-methylbutanoyl)-4-hydroxy-N-(4-(4-methylthiazol-5-yl)benzyl)pyrrolidine-2-carboxamide]
- Dmax [1]: > 90%
- DC50 [1]: 501 to 1000 nM
- Dmax [2]: 70 to 90%
- DC50 [2]: < 100 nM
- Dmax [3]: > 90%
- DC50 [3]: > 1000 nM

Structure (SMILES): Cc1ncsc1-c1ccc([C@H](C)NC(=O)[C@@H]2C[C@@H](O)CN2C(=O)[C@@H](NC(=O)[C@H]2CC3(C2)C[C@H](N2CCC(c4cnc(N5C6CCC5CN(c5cc(-c7ccccc7O)nnc5N)C6)nc4)CC2)C3)C(C)(C)C)cc1 (single isomer, unassigned) [I-2]
- SMARCA2 MSD A549 degradation 24 h: Average Dmax % [1]: A (A (>90% o degradation))
- DC50 [1]: < 100 nM
- SMARCA2 MSD MV411 degradation 24 h: average Dmax % [2]: A (A (>90% degradation))
- DC50 [2]: < 100 nM
- SMARCA4 MSD MV411 degradation 24 h: average Dmax % [3]: B (B (>70-90% degradation))
- DC50 [3]: < 100 nM

Structure (SMILES): Cc1ncsc1-c1ccc(CNC(=O)[C@@H]2C[C@@H](O)CN2C(=O)[C@@H](NC(=O)[C@H]2CCC3(CC2)C[C@H](N2CCC(c4cnc(N5C6CCC5CN(c5cc(-c7ccccc7O)nnc5N)C6)nc4)CC2)C3)C(C)(C)C)cc1 (stereo partly drawn) [I-43, (2S,4R)-1-((2S)-2-(2-(4-(2-(3-(3-amino-6-(2-hydroxyphenyl)pyridazin-4-yl)-3,8-diazabicyclo[3.2.1]octan-8-yl)pyrimidin-5-yl)piperidin-1-yl)spiro[3.5]nonane-7-carboxamido)-3,3-dimethylbutanoyl)-4-hydroxy-N-(4-(4-methylthiazol-5-yl)benzyl)-pyrrolidine-2-carboxamide]
- DC50 [1]: 100 to 500 nM
- DC50 [2]: < 100 nM
- DC50 [3]: > 1000 nM

Structure (SMILES): Cc1ncsc1-c1ccc(CNC(=O)[C@@H]2C[C@@H](O)CN2C(=O)[C@@H](NC(=O)[C@H]2CC3(C2)C[C@H](N2CCC(Oc4ccc(N5C6CCC5CN(c5cc(-c7ccccc7O)nnc5N)C6)cn4)CC2)C3)C(C)(C)C)cc1 (some centres unmarked) [I-40]
- SMARCA2 MSD A549 degradation 24 h: Average Dmax % [1]: B (B (>70-90% o degradation))
- DC50 [1]: > 1000 nM
- SMARCA2 MSD MV411 degradation 24 h: average Dmax % [2]: B (B (>70-90% degradation))
- DC50 [2]: < 100 nM
- SMARCA4 MSD MV411 degradation 24 h: average Dmax % [3]: A (A (>90% degradation))
- DC50 [3]: > 1000 nM

Structure (SMILES): Cc1ncsc1-c1cnc(CNC(=O)[C@@H]2C[C@@H](O)CN2C(=O)[C@@H](NC(=O)[C@H]2CC3(C2)C[C@H](N2CCC(c4ccc(N5C6CCC5CN(c5cc(-c7ccccc7O)nnc5N)C6)cc4)CC2)C3)C(C)(C)C)nc1 (stereo partly drawn) [I-26, (2S,4R)-1-((2S)-2-(6-(4-(4-(3-(3-amino-6-(2-hydroxyphenyl)pyridazin-4-yl)-3,8-diazabicyclo [3.2.1]octan-8-yl)phenyl)piperidin-1-yl)spiro[3.3]heptane-2-carboxamido)-3,3-dimethylbutanoyl)-4-hydroxy-N-((5-(4-methylthiazol-5-yl)pyrimidin-2-yl)methyl)pyrrolidine-2-carboxamide]
- DC50 [1]: > 1000 nM
- DC50 [3]: > 1000 nM
